Data: the COVID Moonshot data (paper PMC11187573), “Identification of SARS-CoV-2 Mpro inhibitors through deep reinforcement learning for de novo drug design and computational chemistry approaches” (RSC Medicinal Chemistry, 2024)

How the values were obtained:
[1] = target: SARS-CoV-2 Main Protease (SARS-CoV-2) (UniProt P0DTD1)
[2] = target: SARS-CoV-2 Main Protease (SARS-CoV-2) (UniProt P0DTD1); remark: listed apart in the source

Row | Compound | inhibition ([1]; 20.0 µM) [%] | inhibition ([1]; 50.0 µM) [%] | inhibition ([2]; 20.0 µM) [%] | relative solubility at 20 uM | relative solubility at 100 uM | inhibition ([2]; 50.0 µM) [%] | IC50 [2] [µM]
1 | C=CC(=O)N(c1ccc(C(C)(C)CC)cc1)C(C(=O)Nc1ccc(Br)cc1)c1cccnc1 (centres undefined) | 8.32 | 18.4 | 0 | 0.91 | 0.66 | – | –
2 | C=CC(=O)N(c1ccc(C(C)(C)C)cc1)C(C(=O)N[C@H]1CC[C@@H](C(=O)OC)C1)c1cccnc1 (stereo in doubt) | 7.31 | 22.2 | 0 | 1 | 0.98 | 6.96 | –
3 | CN(C)C/C=C/C(=O)Nc1c[nH]c2ccccc12 | 5.8 | 22.5 | 0 | 1 | 1 | – | –
4 | Cc1ccc(S(=O)(=O)N2CCN(C(=O)c3cc(=O)[nH]c4ccc(F)cc34)CC2)c(C)c1 | 6.24 | 20.6 | – | 0.98 | 0.84 | 11.7 | –
5 | C=CC(=O)N(c1ccc(N(C)C)c(C)c1)C(C(=O)Nc1ccc(Br)cc1)c1cccnc1 (centres undefined) | 3.45 | 3.43 | 0 | 0.84 | 0.74 | – | –
6 | O=C(Cc1ccc(O)cc1)Nc1cccc2cc[nH]c12 | -9.57 | -4.9 | – | 1 | 1 | 0 | –
7 | C=CC(=O)N(c1ccc(C2(C)CC2)cc1)C(C(=O)Nc1ccc(OC)cc1C)c1cccnc1 (centres undefined) | – | 6.08 | 0 | 1 | 0.52 | 0 | –
8 | Cc1ccncc1NC(=O)CCNc1ccc(S(N)(=O)=O)cc1 | – | -27.1 | 0 | 1 | 1 | 0 | –
9 | N#Cc1cncc(NC(=O)Nc2cccnc2)c1 | 7.07 | 17.1 | – | 1 | 1 | 17.4 | –
10 | O=C(CC(=O)N1CCOCC1)NCc1ccccc1 | -1.44 | 15.1 | 0 | 0.99 | 1 | 0 | –
11 | N#Cc1ccccc1S(=O)(=O)N1CCN(C(=O)c2cc(=O)[nH]c3cc(F)ccc23)CC1 | 1.1 | 52.4 | – | 0.94 | 0.95 | 0 | –
12 | COC(=O)c1sc(NS(=O)(=O)c2ccc(CF)cc2)nc1C(C)(C)C | – | -7.77 | 0 | 1 | 0.99 | 0 | –
13 | CCC(NC(=O)NCc1cnccn1)c1ccccc1OCC(=O)N1CCCC1 (centres undefined) | – | 7.61 | 0 | 1 | 1 | 9.2 | –
14 | C=CC(=O)N(c1ccc(C2(C)CC2)cc1)C(C(=O)Nc1c(C)cccc1CC)c1cccnc1 (centres undefined) | – | 20.9 | 0 | 0.8 | 0.68 | 20.4 | –
15 | O=C1Nc2c(Br)cccc2C1=O | -4.89 | -4.45 | – | 0.99 | 0.81 | 67.4 | 43.1
16 | O=C(CCl)N1CCN(Cc2cccc3ccccc23)CC1 | – | 98.6 | 100 | 0.99 | 0.98 | 100 | 0.9
17 | Cc1ccncc1NC(=O)CN1C(=O)COc2ccc(Cl)cc21 | 32.8 | 49.3 | – | 0.99 | 0.99 | 67.2 | 38.9
18 | Cc1nnn(C)c1NC(=O)Cc1cccc(Cl)c1 | -9.24 | -12.3 | – | 1 | 1 | 5.47 | –
19 | O=C1[C@H](Nc2nccn3cnnc23)CCN1c1cccc(Cl)c1 (stereo in doubt) | 3.55 | 5.29 | – | 1 | 0.98 | 0 | –

Row | Compound | inhibition ([1]; 20.0 µM) [%] | inhibition ([1]; 50.0 µM) [%] | inhibition ([2]; 20.0 µM) [%] | relative solubility at 20 uM | relative solubility at 100 uM | inhibition ([2]; 50.0 µM) [%] | IC50 [2] [µM]
20 | CC(=O)N1CCN(CC(=O)Nc2cccc(S(N)(=O)=O)c2)CC1 | -3.12 | 2.63 | 0 | 1 | 1 | – | –
21 | O=S(=O)(NC1(Cc2ccccc2)CCOCC1)c1cccnc1 | -34.8 | 3.06 | – | 1 | 1 | 11.6 | –
22 | Cc1ccc(C)c(N(C)C(=O)Cc2cnn(C)c2C)c1 | 7.75 | 11.4 | – | 0.97 | 0.98 | 0 | –
23 | CCCSCC(=O)C(C#N)C(=O)Nc1ccccc1F (centres undefined) | – | -9.47 | 0.68 | 1 | 1 | 2.12 | –
24 | C=CC(=O)N(c1ccc(N(C)C)c(C)c1)C(C(=O)Nc1ccc(OC)cc1)c1cccnc1 (centres undefined) | 2.56 | 7.05 | 0 | 0.88 | 0.77 | 2.05 | –
25 | C=CC(=O)N(c1ccc(C(C)(C)C)cc1)C(C(=O)NCCCSC)c1cccnc1 (centres undefined) | 50.3 | 75.6 | 70 | 1 | 1 | 100 | 13.7
26 | Cc1cccc(NC(=O)Cn2c(=O)oc3ccccc32)c1 | -20.4 | -5.83 | – | 0.99 | 0.94 | -9.03 | –
27 | O=C(NCc1noc2ccccc12)c1ccccc1OCC1CC1 | 5.31 | 11.7 | 0 | 1 | 0.64 | 0 | –
28 | Cc1ccncc1NC(=O)CC(C)(C)NC(=O)c1cccc2[nH]ccc12 | – | -10.4 | 0 | 0.99 | 0.99 | 0 | –
29 | C=CC(=O)N(c1ccc(C(C)(C)C)cc1)C(C(=O)NCCCOC)c1cccnc1 (centres undefined) | 3.35 | 19.4 | 12.2 | 0.99 | 0.98 | 39.5 | –
30 | O=C(Cc1ccc2ccccc2c1)Nc1cc(C(F)(F)F)ccn1 | -2.55 | 3.43 | 11 | 0.9 | 0.38 | 29.3 | –
31 | CCC(=O)Nc1cccc(OC2CC(=O)N2)c1 (centres undefined) | -4.99 | -6.23 | – | 1.01 | 1.01 | 0 | –
32 | C=CC(=O)N(c1ccc(S(F)(F)(F)(F)F)cc1)C(C(=O)NC(C)(C)C)c1cccnc1 (centres undefined) | 11.1 | 23 | 6.54 | 0.98 | 0.9 | – | –
33 | O=C(NCc1cccnc1)Nc1cccc(OCC(F)F)n1 | 3.33 | 8.28 | 0 | 1 | 1 | 4.42 | –
34 | C=CC(=O)N(c1ccc2ncsc2c1)C(C(=O)Nc1cccc(CC)c1)c1cccnc1 (centres undefined) | 33.9 | 59.3 | 16.6 | 0.8 | 0.63 | – | 32
35 | CCN(C)CC1CCN(c2ccc(S(N)(=O)=O)cc2)CC1 | 3.39 | 6.02 | 0 | 1 | 0.98 | 0 | –
36 | O=C(CCl)N1CCN(Cc2nc(-c3cccs3)no2)CC1 | 6.55 | 17 | – | 0.98 | 0.93 | 0 | –
37 | NS(=O)(=O)c1ccc2c(c1)C(=O)C(=O)N2 | -2.6 | -3.21 | – | 1.01 | 1 | 37.1 | –
